This is an account of results in patent US11530221B2, “Pyrimido[4,5-d]pyrimidin-2-one derivatives as protein kinase inhibitors” (KOREA INSTITUTE OF SCIENCE AND TECHNOLOGY, priority 2019, dated 2022).

Like-named read-outs stand apart in the source and are kept apart here. Square brackets hold non-standard residues; d marks the D form. Peptide text beside a SMILES is read from it. * marks the point of attachment. X1 = Cc1ccc(Nc2ncc3c(n2)N(C)C(=O)N(c2cc(C(=O)*)ccc2C)C3)cn1; Pip = O=C(O)[C@@H]1CCCCN1; Aib = CC(C)(N)C(=O)O

One assay concerns the target LCK (Homo sapiens, UniProt P06239). Put plainly: IC50 inhibitory activity against LCK kinase. Format: biochemical. Here is the method:
(§1) IC50 values were calculated by measuring the inhibitory activity against LCK, c-Src, p38a/MAPK14, ABL1, DDR1 and FGR kinases of the compounds of the present invention.

The next assay addresses c-Src (Homo sapiens, UniProt P12931). The assay is described as follows: IC50 inhibitory activity against c-Src kinase. Format: biochemical. Here is the method:
as §1

LCK, sequence (P06239 whole entry): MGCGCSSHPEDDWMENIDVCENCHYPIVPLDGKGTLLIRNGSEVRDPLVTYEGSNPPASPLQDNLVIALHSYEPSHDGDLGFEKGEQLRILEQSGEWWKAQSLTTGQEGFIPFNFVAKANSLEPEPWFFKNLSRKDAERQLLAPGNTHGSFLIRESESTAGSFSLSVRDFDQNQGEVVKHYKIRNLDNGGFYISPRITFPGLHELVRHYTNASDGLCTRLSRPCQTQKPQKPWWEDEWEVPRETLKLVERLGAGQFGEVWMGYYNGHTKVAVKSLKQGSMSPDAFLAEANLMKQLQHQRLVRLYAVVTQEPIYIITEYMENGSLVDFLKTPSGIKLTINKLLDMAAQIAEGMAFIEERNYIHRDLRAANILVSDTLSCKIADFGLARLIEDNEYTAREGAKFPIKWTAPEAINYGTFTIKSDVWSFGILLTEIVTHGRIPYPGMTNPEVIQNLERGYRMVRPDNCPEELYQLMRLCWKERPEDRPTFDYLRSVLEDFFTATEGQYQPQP
c-Src, sequence (P12931 whole entry): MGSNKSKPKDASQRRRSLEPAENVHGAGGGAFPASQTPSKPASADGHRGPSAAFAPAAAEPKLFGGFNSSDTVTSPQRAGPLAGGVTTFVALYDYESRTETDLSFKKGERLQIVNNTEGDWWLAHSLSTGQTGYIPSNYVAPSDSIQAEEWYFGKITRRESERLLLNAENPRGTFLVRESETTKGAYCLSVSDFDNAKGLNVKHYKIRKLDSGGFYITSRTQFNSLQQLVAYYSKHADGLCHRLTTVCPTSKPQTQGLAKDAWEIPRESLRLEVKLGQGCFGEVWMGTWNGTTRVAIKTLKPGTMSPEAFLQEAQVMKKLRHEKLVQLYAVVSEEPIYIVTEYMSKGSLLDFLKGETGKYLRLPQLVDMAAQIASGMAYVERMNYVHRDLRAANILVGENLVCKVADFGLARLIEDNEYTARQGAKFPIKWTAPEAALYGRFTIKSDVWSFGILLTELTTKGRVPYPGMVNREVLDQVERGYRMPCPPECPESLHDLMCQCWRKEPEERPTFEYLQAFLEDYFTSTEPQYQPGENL

As to `Cc1ccc(Nc2ncc3c(n2)N(C)C(=O)N(c2cc(NC(=O)c4ccc5c(c4)NC(=O)[C@@H](Cc4ccccc4)N=C5c4ccccc4)ccc2C)C3)cn1` [Example 36, (R)-3-benzyl-N-(4-methyl-3-(1-methyl-7-((6-methylpyridin-3-yl)amino)-2-oxo-1,4-dihydropyrimido[4,5-d]pyrimidin-3(2H)-yl)phenyl)-2-oxo-5-phenyl-2,3-dihydro-1H-benzo[e][1,4]diazepine-8-carboxamide], the IC50 on LCK (read-out: LCK IC50) and at c-Src (read-out: c-Src IC50) was 1 to 200 nM in each case.
For `Cc1ccc(Nc2ncc3c(n2)N(C)C(=O)N(c2cc(C(=O)N[C@@H](Cc4ccccc4)C(=O)N4CCC[C@@H]4C(=O)N[C@H](C(=O)N[C@H](C)c4ccccc4)C(C)C)ccc2C)C3)cn1` [Example 7, (R)—N—((S)-3-methyl-1-oxo-1-(((R)-1-phenylethyl)amino)butan-2-yl)-1-((4-methyl-3-(1-methyl-7-((6-methylpyridin-3-yl)amino)-2-oxo-1,4-dihydropyrimido[4,5-d]pyrimidin-3(2H)-yl)benzoyl)-L-phenylalanyl)pyrrolidine-2-carboxamide], the IC50 on LCK (read-out: LCK IC50) lay within 1 to 200 nM; at c-Src (read-out: c-Src IC50), 400 to 600 nM.
Taken in the same sequence, the figures for `Cc1ccc(Nc2ncc3c(n2)N(C)C(=O)N(c2cc(NC(=O)c4ccc5c(c4)NC(=O)[C@H](Cc4ccccc4C)N=C5c4ccccc4)ccc2C)C3)cn1` [Example 29, (S)—N-(4-methyl-3-(1-methyl-7-((6-methylpyridin-3-yl)amino)-2-oxo-1,4-dihydropyrimido[4,5-d]pyrimidin-3(2H)-yl)phenyl)-3-(2-methylbenzyl)-2-oxo-5-phenyl-2,3-dihydro-1H-benzo[e][1,4]diazepine-8-carboxamide] were 1 to 200 nM and 1 to 200 nM.
Consider `Cc1ccc(Nc2ncc3c(n2)N(C)C(=O)N(c2cc(C(=O)N[C@@H](C(=O)N4CCC[C@@H]4C(=O)NC(C)(C)C(=O)N[C@H](CC(C)C)C(=O)N(C)C)C(C)C)ccc2C)C3)cn1` [Example 10, (R)—N-(1-(((R)-1-(dimethylamino)-4-methyl-1-oxopentan-2-yl)amino)-2-methyl-1-oxopropan-2-yl)-1-((4-methyl-3-(1-methyl-7-((6-methylpyridin-3-yl)amino)-2-oxo-1,4-dihydropyrimido[4,5-d]pyrimidin-3(2H)-yl)benzoyl)-D-valyl)pyrrolidine-2-carboxamide] (X1-[dV][dP][Aib][dL]-NMe2), for which the IC50 on LCK was 200 to 400 nM; against c-Src, more than 600 nM.
Taken in the same sequence, the figures for `Cc1ccc(Nc2ncc3c(n2)N(C)C(=O)N(c2cc(C(=O)N[C@H](C(=O)N4CCC[C@@H]4C(=O)NCC(=O)N[C@@H](CC(C)C)C(=O)N(C)C)C(C)C)ccc2C)C3)cn1` [Example 5, (R)—N-(2-(((S)-1-(dimethylamino)-4-methyl-1-oxopentan-2-yl)amino)-2-oxoethyl)-1-((4-methyl-3-(1-methyl-7-((6-methylpyridin-3-yl)amino)-2-oxo-1,4-dihydropyrimido[4,5-d]pyrimidin-3(2H)-yl)benzoyl)-L-valyl)pyrrolidine-2-carboxamide] (X1-V[dP]GL-NMe2) were 1 to 200 nM and more than 600 nM.
For the molecule `Cc1ccc(Nc2ncc3c(n2)N(C)C(=O)N(c2cc(C(=O)N[C@H](C(=O)N4CCCC[C@H]4C(=O)NC(C)(C)C(=O)N[C@@H](CC(C)C)C(=O)N(C)C)C(C)C)ccc2C)C3)cn1` [Example 13, (S)—N-(1-(((S)-1-(dimethylamino)-4-methyl-1-oxopentan-2-yl)amino)-2-methyl-1-oxopropan-2-yl)-1-((4-methyl-3-(1-methyl-7-((6-methylpyridin-3-yl)amino)-2-oxo-1,4-dihydropyrimido[4,5-d]pyrimidin-3(2H)-yl)benzoyl)-L-valyl)piperidine-2-carboxamide] (X1-V[Pip][Aib]L-NMe2), the IC50 on LCK (read-out: LCK IC50) is 1 to 200 nM; on c-Src (read-out: c-Src IC50), 400 to 600 nM.
Taken in the same sequence, the figures for `C=CCCC1=N[C@@H](CC(=O)Nc2ccc(C)c(N3Cc4cnc(Nc5ccc(C)nc5)nc4N(C)C3=O)c2)C(=O)N(C)c2ccccc21` [Example 45, (S)-2-(5-(but-3-en-1-yl)-1-methyl-2-oxo-2,3-dihydro-1H-benzo[e][1,4]diazepin-3-yl)-N-(4-methyl-3-(1-methyl-7-((6-methylpyridin-3-yl)amino)-2-oxo-1,4-dihydropyrimido[4,5-d]pyrimidin-3(2H)-yl)phenyl)acetamide] were 1 to 200 nM and 1 to 200 nM.
With `COCCN1C(=O)[C@H](CC(C)C)N=C(c2ccccc2)c2ccc(C(=O)Nc3ccc(C)c(N4Cc5cnc(Nc6ccc(C)nc6)nc5N(C)C4=O)c3)cc21` [Example 42, (S)-3-isobutyl-1-(2-methoxyethyl)-N-(4-methyl-3-(1-methyl-7-((6-methylpyridin-3-yl)amino)-2-oxo-1,4-dihydropyrimido[4,5-d]pyrimidin-3(2H)-yl)phenyl)-2-oxo-5-phenyl-2,3-dihydro-1H-benzo[e][1,4]diazepine-8-carboxamide], the IC50 at LCK (read-out: LCK IC50) and on c-Src (read-out: c-Src IC50) was 1 to 200 nM throughout.
`Cc1ccc(Nc2ncc3c(n2)N(C)C(=O)N(c2cc(NC(=O)c4ccc5c(c4)N(CC(C)C)C(=O)[C@H](CC(C)C)N=C5c4ccccc4)ccc2C)C3)cn1` [Example 39, (S)-1,3-diisobutyl-N-(4-methyl-3-(1-methyl-7-((6-methylpyridin-3-yl)amino)-2-oxo-1,4-dihydropyrimido[4,5-d]pyrimidin-3(2H)-yl)phenyl)-2-oxo-5-phenyl-2,3-dihydro-1H-benzo[e][1,4]diazepine-8-carboxamide]: the IC50 at LCK (read-out: LCK IC50) was 1 to 200 nM; on c-Src (read-out: c-Src IC50), 400 to 600 nM.
Taken in the same sequence, the figures for `CC1=N[C@@H](CC(C)C)C(=O)N(Cc2ccccc2)c2cc(C(=O)Nc3ccc(C)c(N4Cc5cnc(Nc6ccc(C)nc6)nc5N(C)C4=O)c3)ccc21` [Example 41, (S)-1-benzyl-3-isobutyl-5-methyl-N-(4-methyl-3-(1-methyl-7-((6-methylpyridin-3-yl)amino)-2-oxo-1,4-dihydropyrimido[4,5-d]pyrimidin-3(2H)-yl)phenyl)-2-oxo-2,3-dihydro-1H-benzo[e][1,4]diazepine-8-carboxamide] were 1 to 200 nM and 1 to 200 nM.
For the molecule `Cc1ccc(Nc2ncc3c(n2)N(C)C(=O)N(c2cc(C(=O)N[C@H](C(=O)N4CCC[C@@H]4C(=O)N[C@H](C(=O)N[C@H](C)c4ccccc4)C(C)C)C(C)C)ccc2C)C3)cn1` [Example 8, (R)—N—((S)-3-methyl-1-oxo-1-(((R)-1-phenylethyl)amino)butan-2-yl)-1-((4-methyl-3-(1-methyl-7-((6-methylpyridin-3-yl)amino)-2-oxo-1,4-dihydropyrimido[4,5-d]pyrimidin-3(2H)-yl)benzoyl)-L-valyl)pyrrolidine-2-carboxamide], the values for the IC50 at LCK (read-out: LCK IC50) and on c-Src (read-out: c-Src IC50) were 400 to 600 nM and more than 600 nM, respectively.
Taken in the same sequence, the figures for `CC1=N[C@@H](CC(C)C)C(=O)N(C)c2cc(C(=O)Nc3ccc(C)c(N4Cc5cnc(Nc6ccc(C)nc6)nc5N(C)C4=O)c3)ccc21` [Example 40, (S)-3-isobutyl-1,5-dimethyl-N-(4-methyl-3-(1-methyl-7-((6-methylpyridin-3-yl)amino)-2-oxo-1,4-dihydropyrimido[4,5-d]pyrimidin-3(2H)-yl)phenyl)-2-oxo-2,3-dihydro-1H-benzo[e][1,4]diazepine-8-carboxamide] were 1 to 200 nM and 1 to 200 nM.

Usually IC50 stands for the concentration needed to halve the response being measured.
